Data on 22 molecules can be found in ChEMBL document CHEMBL1144946, “4-Amino-2-(aryl)-butylbenzamides and Their conformationally constrained analogues. Potent antagonists of the human neurokinin-2 (NK(2)) receptor” (Bioorg Med Chem Lett, 2003).

In general, pIC50 refers to −log10 of the IC50, conventionally taken in molar units. One may read the inhibition as the percentage by which the read-out fell short of the control. High values mean a strong effect, low ones a weak effect.

Molecules are shown by their SMILES.

The species named for one experiment is Oryctolagus cuniculus. Put plainly: Ability to antagonise the contractile effects of the selective NK2 receptor agonist [B-ala8]NKA in the rabbit pulmonary artery (RPA). To be noted: read-out: pA2 (converted). The experiment is classed as functional.
In experiment [1] the target is T1, Substance-K receptor (Homo sapiens, UniProt P21452).
T1 sequence (P21452 whole entry): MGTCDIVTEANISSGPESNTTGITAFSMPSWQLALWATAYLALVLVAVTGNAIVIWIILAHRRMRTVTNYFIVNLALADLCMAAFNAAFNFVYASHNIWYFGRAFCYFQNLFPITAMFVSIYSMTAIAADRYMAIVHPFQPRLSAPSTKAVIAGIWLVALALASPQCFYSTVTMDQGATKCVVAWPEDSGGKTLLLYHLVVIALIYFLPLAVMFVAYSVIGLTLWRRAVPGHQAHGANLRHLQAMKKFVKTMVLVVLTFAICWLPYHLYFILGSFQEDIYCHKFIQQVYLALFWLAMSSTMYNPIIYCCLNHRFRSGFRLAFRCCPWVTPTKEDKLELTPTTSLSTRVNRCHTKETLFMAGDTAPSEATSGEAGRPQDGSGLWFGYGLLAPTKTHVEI
The experiment in a line: Binding affinity for human tachykinin receptor 2 expressed in CHO cells using [125I]- NKA radioligand. The format is cell-based.

For experiment [2], the target named is T1, Substance-K receptor. The experiment in a line: Binding affinity towards human Tachykinin receptor 2 using [125I]- NKA radioligand expressed in CHO cells. The format is cell-based.
Experiment [3] has as its target T2, Substance-K receptor (Rattus norvegicus) (UniProt P16610).
T2 sequence (whole entry): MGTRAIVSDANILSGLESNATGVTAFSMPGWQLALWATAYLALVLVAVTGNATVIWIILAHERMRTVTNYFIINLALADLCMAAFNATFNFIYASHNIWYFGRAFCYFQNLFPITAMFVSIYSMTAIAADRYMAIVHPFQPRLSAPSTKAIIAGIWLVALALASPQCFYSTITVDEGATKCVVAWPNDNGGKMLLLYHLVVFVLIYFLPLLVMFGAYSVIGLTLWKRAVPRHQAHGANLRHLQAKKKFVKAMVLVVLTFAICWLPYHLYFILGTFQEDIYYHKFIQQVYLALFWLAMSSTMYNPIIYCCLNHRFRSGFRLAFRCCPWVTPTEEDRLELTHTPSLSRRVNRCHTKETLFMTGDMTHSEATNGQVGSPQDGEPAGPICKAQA
The experiment in a line: Binding affinity towards […] using [125I]- NKA radioligand expressed in rat duodenum at 100 nM.

For the molecule `O=S(=O)(c1ccccc1)N1CCC(CCN2CC(N3CCOCC3)C2)(c2ccc(Cl)c(Cl)c2)C1` (stereo not given), the Kb in the experiment listed under Oryctolagus cuniculus is 63.1 nM. The pIC50 at Substance-K receptor [1] worked out at 6.7.
`CN(CC(CCN1CCC(n2ccnc2)CC1)c1ccc(Cl)c(Cl)c1)C(=O)c1ccccc1` (stereo not given): the Kb in the experiment filed under Oryctolagus cuniculus was 5.01 nM. Further, the negative logarithm of the IC50 (pIC50) on Substance-K receptor [1] is 7.7.
For the molecule `CC(=O)NC1(c2ccccc2)CCN(CCC(CN(C)C(=O)c2ccccc2)c2ccc(Cl)c(Cl)c2)CC1` (stereo not given), the Kb in the experiment listed under Oryctolagus cuniculus was 0.794 nM. The pIC50 at Substance-K receptor [2] came out at 8.9.
Consider `O=C(CC1CC1)N1CCC(CCN2CC(N3CCOCC3)C2)(c2ccc(Cl)c(Cl)c2)C1` (stereo not given), for which the pIC50 at Substance-K receptor [1] was 6.3.
The molecule `CN(CC(CCN1CCC(c2ccccc2)CC1)c1ccc(Cl)c(Cl)c1)C(=O)c1ccccc1` (stereo not given) displayed a negative-log IC50 (pIC50) on Substance-K receptor [1] below 7.
On Substance-K receptor [1], `CN(CC(CCN1CCC(O)CC1)c1ccc(Cl)c(Cl)c1)C(=O)c1ccccc1` (stereo not given) registered a pIC50 of 6.4.
Consider `CN(CC(CCN1CCC(c2nc3ccccc3[nH]2)CC1)c1ccc(Cl)c(Cl)c1)C(=O)c1ccccc1` (stereo not given), for which, in the experiment listed under Oryctolagus cuniculus, the Kb is 50.1 nM. This molecule came in with a negative logarithm of the IC50 (pIC50) on Substance-K receptor [1] of 7.3.
In the case of `CN(CC(CCN1CC(N2CCOCC2)C1)c1ccc(Cl)c(Cl)c1)C(=O)c1ccccc1` (stereo not given), the Kb in the experiment filed under Oryctolagus cuniculus was 1.26 nM. This molecule returned a negative-log IC50 (pIC50) at Substance-K receptor [1] of 7.7.
The molecule `CN(CC(CCN1CCC(O)(c2ncc[nH]2)CC1)c1ccc(Cl)c(Cl)c1)C(=O)c1ccccc1` (stereo not given) showed a negative-log IC50 (pIC50) at Substance-K receptor [1] of 6.6.
With `CN(CC(CCN1CCCC(n2c(O)nc3ccccc32)CC1)c1ccc(Cl)c(Cl)c1)C(=O)c1ccccc1` (stereo not given), the Kb in the experiment filed under Oryctolagus cuniculus is 3.98 nM. The molecule further came in with a pIC50 at Substance-K receptor [1] of 8.4.
On to `CCN(CC)C(=O)C1CCCN(CCC(CN(C)C(=O)c2ccccc2)c2ccc(Cl)c(Cl)c2)C1` (stereo not given), for which the inhibition in experiment [3] was 61%.
For the molecule `O=C(c1ccccc1)N1CC(CCN2CC(N3CCOCC3)C2)(c2ccc(Cl)c(Cl)c2)C1`, the Kb in the experiment filed under Oryctolagus cuniculus was 7.94 nM. This molecule also gave a negative logarithm of the IC50 (pIC50) on Substance-K receptor [1] of 7.2.
For `O=C(c1ccccc1)N1CCC(CCN2CC(N3CCOCC3)C2)(c2ccc(Cl)c(Cl)c2)C1` (stereo not given), the negative-log IC50 (pIC50) on Substance-K receptor [1] came to 7.5.
In turn, `CN(CC(CCN1CCC(n2c(O)nc3ccccc32)C1)c1ccc(Cl)c(Cl)c1)C(=O)c1ccccc1` (stereo not given) had a negative-log IC50 (pIC50) on Substance-K receptor [1] of 7.4.
Regarding `CN(CC(CCN1CCC(n2c(O)nc3ccccc32)CC1)c1ccc(Cl)c(Cl)c1)C(=O)c1ccccc1` (stereo not given), the Kb in the experiment filed under Oryctolagus cuniculus is 3.98 nM. This molecule also gave an inhibition in experiment [3] of 81%. This molecule returned a pIC50 at Substance-K receptor [1] of 8.9.
In the case of `CN(CC(CCN1CCC(n2cncn2)CC1)c1ccc(Cl)c(Cl)c1)C(=O)c1ccccc1` (stereo not given), the Kb in the experiment filed under Oryctolagus cuniculus is 79.4 nM. In addition, the pIC50 on Substance-K receptor [1] amounted to 6.8.
The corresponding values for `CN(CC(CCN1CCC(n2cnc3ccccc32)CC1)c1ccc(Cl)c(Cl)c1)C(=O)c1ccccc1` (stereo not given) are 2.51 nM and 8.1.
On Substance-K receptor [1], `CN(CC(CCN1CCCC(n2c(=O)[nH]c3ccccc32)C1)c1ccc(Cl)c(Cl)c1)C(=O)c1ccccc1` (stereo not given) registered a negative logarithm of the IC50 (pIC50) of 7.1.
With `CN(CC(CCN1CCC(O)(c2ccccc2)CC1)c1ccc(Cl)c(Cl)c1)C(=O)c1ccccc1` (stereo not given), the Kb in the experiment filed under Oryctolagus cuniculus was 0.316 nM. On Substance-K receptor [1], this molecule displayed a pIC50 of 8.9.
In the case of `CN(CC(CCN1CCCCC1)c1ccc(Cl)c(Cl)c1)C(=O)c1ccccc1` (stereo not given), at Substance-K receptor [1], the negative-log IC50 (pIC50) was 6.3.
`COc1ccccc1C(=O)N1CCCC(CCN2CC(N3CCOCC3)C2)(c2ccc(Cl)c(Cl)c2)C1` (stereo not given): in the experiment listed under Oryctolagus cuniculus, the Kb is 20 nM.
Turning to `CN(CC(CCN1CC(n2ccnc2)C1)c1ccc(Cl)c(Cl)c1)C(=O)c1ccccc1` (stereo not given), the Kb in the experiment listed under Oryctolagus cuniculus was 25.1 nM. Further, the negative logarithm of the IC50 (pIC50) at Substance-K receptor [1] stood at 6.8.
